Test results taken from patent US20060166956A1, “Use of anecortave acetate for the protection of visual acuity in patients with age related macular degeneration” (priority 2002, published 2006).

Legend:
[1] = system: patients with subfoveal choroidal neovascularization (CNV) secondary to AMD; experiment: Clinical trial: best-corrected log MAR visual acuity after single posterior juxtascleral administration; assay type: in vivo
From the text: (§1) This ongoing trial was initiated to compare the clinical efficacy of anecortave acetate versus placebo treatment for preservation (maintenance) of vision and inhibition of CNV lesion growth. Patients with a log MAR visual acuity of 0.3 (20/40 Snellen equivalent) to 1.2 (20/320 Snellen equivalent) and primary or recurrent subfoveal choroidal neovascularization (CNV) secondary to AMD with a lesion up to 30.48 mm^2 (12 disc areas) in size were enrolled. At Baseline and follow-up visits, best-corrected log MAR visual acuity was obtained on all patients using guidelines previously established for the Early Treatment Diabetic Retinopathy Study. Patient lesion eligibility for this study was determined from standardized fluorescein angiograms at the Digital Angiography Reading Center (DARC) by certified Readers (trained retina specialists) prior to enrollment and treatment. The DARC also evaluated changes from Baseline in the fluorescein angiographic characteristics of the lesions in masked fashion. Each data point represents the average of at least two independent evaluations by DARC Readers. Because all angiographic data for this study is being collected using the same fundus camera and digital camera systems and stored as uncompressed digital images, the actual lesion surface areas can be more closely approximated in mm^2 rather than requiring the disc area “best-fit” estimates previously used for film angiographic data.
The 128 patients in this double-masked, dose-response study were enrolled and treated between April 1999 and May 2001 by 18 participating sites in the US and EU. Prior to treatment, patients were enrolled and equally randomized to anecortave acetate sterile suspension for injection 30 mg (N=33), 15 mg (N=33), or 3 mg (N=32) or to placebo (vehicle, N=30). Masking of the clinical sites as to treatment group is being maintained in two ways. Study medication is masked by placing the treatment kits including study medication and supplies for the posterior juxtascleral administration in sealed opaque boxes identified by patient number only. The boxes were numbered sequentially at each clinical site and patients were assigned the next available sequential number upon enrollment. The randomization was built into the sequential numbering of the treatment kits and blocked within each site to maintain equal distribution across treatment assignments. Masking as to treatment group is also being maintained at each site by having an unmasked injecting investigator perform the treatments and a masked examining investigator perform the subsequent evaluations. Upon enrollment of each patient, anecortave acetate or placebo was administered behind the eye as a 0.5 mL posterior juxtascleral injection onto the outer surface of the sclera near the macula using a specially designed cannula. The cannula is described in commonly owned U.S. Pat. No. 6,413,245B 1.
Clinical efficacy data is being obtained from evaluations of best-corrected log MAR visual acuity and standardized fluorescein angiograms. Clinical safety data obtained from general physical examinations, laboratory evaluations of blood and urine, and complete ophthalmic examinations, including indocyanine green angiography, continue to be periodically evaluated by the Independent Safety Committee overseeing this study. Clinical data from evaluations for safety and efficacy performed at Day 1-2, Week 2, Week 6, Month 3, and Month 6 following patient randomization and treatment are reported here. […]

[2] = system: subfoveal CNV lesion secondary to AMD; experiment: Clinical trial: CNV lesion surface area change by standardized fluorescein angiograms (DARC); assay type: in vivo, patients; conditions: for inhibition of lesion growth, comparison with placebo: Month 6
From the text: as §1
The primary efficacy outcome for this ongoing study is the mean change from Baseline in best-corrected log MAR visual acuity. Secondary efficacy outcomes are: the percentage of patients with preservation or maintenance of vision (defined as loss of less than three log MAR lines [less than 15 log MAR letters] of visual acuity); the percentage of patients with clinically significant worsening of vision (defined as a loss of at least three log MAR lines [at least 15 log MAR letters] of visual acuity); the percentage of patients with severe vision loss (defined as a loss of at least six log MAR lines [at least 30 log MAR letters] of visual acuity); and changes in CNV lesion characteristics (defined as total lesion area, total CNV and total classic CNV).
All efficacy analyses were based on the intent-to-treat principle. All patients received the medication to which they were assigned, and were analyzed accordingly. Last-observation-carry-forward was used to impute missing values. Baseline comparisons were tested using analysis of variance (for continuous outcomes) and Pearson's chi square (for binary outcomes). Changes from baseline in visual acuity and lesion parameters were tested in a repeated measures analysis of variance model with appropriate contrasts for the 6-month comparisons. Comparisons of binary outcomes at Month 6 were evaluated using Pearson's chi-square tests. All analyses of ocular outcomes are based on changes in the study (i.e., treated) eye.
Total lesion areas, total CNV areas, and total classic CNV areas were measured and compared among treatment groups.

[3] = system: patients with exudative AMD; experiment: Clinical trial: clinical safety evaluation (Independent Safety Committee); assay type: in vivo
From the text: Clinical efficacy data is being obtained from evaluations of best-corrected log MAR visual acuity and standardized fluorescein angiograms. Clinical safety data obtained from general physical examinations, laboratory evaluations of blood and urine, and complete ophthalmic examinations, including indocyanine green angiography, continue to be periodically evaluated by the Independent Safety Committee overseeing this study. Clinical data from evaluations for safety and efficacy performed at Day 1-2, Week 2, Week 6, Month 3, and Month 6 following patient randomization and treatment are reported here.
Following completion of the Month 6 visit by all patients, the accumulated safety data were evaluated by the Independent Safety Committee overseeing this study. […] The most common ocular changes reported were changes in lens opacity using the Lens Opacity Classification System (LOCS) II, and included reports of nuclear color, nuclear opalescence, cortical, and posterior subcapsular changes. Cataracts are a common intercurrent disorder in this patient population, and the changes seen were documented in all treatment groups and in contralateral (untreated) eyes. The cataractous changes reported were described as mild and typically unrelated to treatment. The second most common ocular change, a decrease in vision (defined as a decrease of ≧4 log MAR lines from the previous visit), is also a common problem in this patient population. These vision decreases occurred in all treatment groups and in the contralateral eye. Other ocular changes (occurring with a frequency greater than 5%) were ptosis, ocular pain, subconjunctival hemorrhage, ocular pruritis, ocular burning/stinging, pupil disorders, foreign body sensation, ocular hyperemia, and abnormal vision. These changes were reported in all four treatment groups, in both treated eyes and contralateral eyes, were characterized as primarily mild, were generally not attributed to treatment, and were transient in nature. The single report of an IOP increase (≧10 mmHg) from Baseline occurred in a patient treated with anecortave acetate 30 mg and was attributed to intercurrent illness. Of the ocular changes reported, those most frequently attributed to study treatment were ptosis, ocular pain, subconjunctival hemorrhage, ocular pruritis, and ocular burning/stinging. These treatment-related events were mostly mild, transient, and seen within all four treatment groups.

With `CC(=O)OCC(=O)[C@@]1(O)CC[C@H]2[C@@H]3CCC4=CC(=O)CC[C@]4(C)C3=CC[C@@]21C` [anecortave acetate, 4,9(11)-pregnadien-17α,21-diol-3,20 dione-21 acetate] the “mean change at Month 6 from Baseline in log MAR visual acuity, comparison with placebo” value ([1]; 3 mg) was “Trends also favor treatment”, the “percentage of patients with preservation of vision (decrease of less than three log MAR lines)” value ([1]; 15 mg, Month 6, all patients) was 88% and the “percentage of patients with preservation of vision (decrease of less than three log MAR lines)” value ([1]; 15 mg, Month 6, subgroup with predominantly classic CNV lesion, p=0.0209 vs placebo) was 92%. The “mean change at Month 6 from Baseline in log MAR visual acuity, comparison with placebo” value ([1]; 15 mg, p=0.0032) was “statistically superior to placebo treatment”, the “mean change at Month 6 from Baseline in log MAR visual acuity, comparison with placebo” value ([1]; 30 mg) was “Trends also favor treatment” and the “inhibition of lesion growth, comparison with placebo” value ([2]; 3 mg) was “trend favoring”. For the same compound, the “inhibition of total CNV surface area (percent change from Baseline), comparison with placebo” value ([2]; 15 mg, Month 6, p=0.0001) was “statistically superior to placebo treatment”, the “inhibition of total lesion surface area (percent change from Baseline), comparison with placebo” value ([2]; 15 mg, Month 6, p=0.0005) was “statistically superior to placebo treatment” and the “inhibition of total classic CNV surface area (percent change from Baseline), comparison with placebo” value ([2]; 15 mg, Month 6, p=0.0008) was “statistically superior to placebo treatment”. The “inhibition of lesion growth, comparison with placebo” value ([2]; 30 mg) was “trend favoring”, the “reports of IOP increase (≧10 mmHg) from Baseline” value ([3]; 30 mg) was “single report” and the “changes in blood chemistry, hematology, or urinalysis” value ([3]; all doses) was “No treatment-related changes”. The “safety concerns identified by the Independent Safety Committee” value ([3]; all doses, after Month 6 visit) was “no clinically relevant medication-related or administration-related safety concerns were identified” and the “ocular corticosteroid side effects (elevated intraocular pressure, accelerated cataract progression)” value ([3]; clinical study, at least 6 months exposure) was “no clinical evidence”.
